Measurements as given in patent publication US20240132498A1, “CRYSTALLINE FORMS OF 5-(3,4-DIFLUOROBENZYL)-8-((1R,4R)-4-METHYLCYCLOHEXYL)-6,9-DIOXO-2,5,8-TRIAZASPIRO[3.5]NONANE-2-CARBALDEHYDE” (Cytokinetics, Incorporated, priority 2022, published 2024).

What was measured:
[1] = Dog single dose pharmacokinetics; assay type: in vivo; conditions: male, plasma, intravenous, beagle dogs; for Vd: read-out: Vss
Experimental: Non-naïve male beagle dogs (8 months −3 years of age, body weight 8-13 kg) were used in this study. All animals for IV administration had free access to food and water; all animals for PO were fasted overnight prior to dosing and were fed approximately 6 hours after dosing. For the animals in PO group, pentagastrin (6.0 μg/kg, i.m.) was administrated 20 minutes before dosing PO formulation and 1.5 hours after the second pentagastrin dosing. The dosing volume was 0.024 mL/kg, the concentration was 250 μg/mL in DMSO/1 N NaOH/PBS. 10 mL of 0.001 N HCl was used to wash the gavage catheter for each animal. The IV dose solution was prepared in 10% DMA/50% PG/40% HPOCD solution (40% w/v aqueous HPOCD) at a concentration of 1.0 mg/mL. The oral dose suspension was prepared by suspending the compound in 0.5% HPMC/0.1% Tween 80 in distilled water at a concentration of 0.2 mg/mL. Concentrations of IV and PO doses were measured at the end of the study. PK parameters were calculated using the nominal dose values if the measured values were within 20% of the nominal values. Blood samples were collected by venipuncture of peripheral veins except the dosing vein at pre-dose, 5 15, 30 min, 1, 2, 4, 6, 8, 24 and 48 h post-dose. Blood samples were centrifuged and resultant plasma was frozen for bioanalysis. Plasma samples were stored at −80° C. before analysis. Plasma samples were analyzed for compound concentrations using the LC/MS/MS method. Briefly, a 50 μL aliquot of each plasma sample was mixed with 100 μL of acetonitrile that contained an internal standard. The mixture was vortexed and centrifuged. Ten (10) μL of the resulting solution was injected onto a reverse-phase C18 column and the resultant peaks detected on a LC/MS/MS equipped with a turbo ionspray ionization source. Sample concentrations below the limit of quantification (BLQ) were treated as zero for PK calculations. PK parameters were estimated from individual animals using noncompartmental analysis of the concentration-time data (Phoenix WinNonLin software, version 64; Pharsight, Mountain View, CA). The elimination rate constant (k) was calculated as the absolute value of the slope of the linear regression of logarithm (log) of the concentration versus time for the last three data points of the concentration-time profiles. Apparent elimination half-life (t1/2) values were calculated as 1n(2)/k. Area under the concentration-time curve (AUC) values were estimated using linear trapezoidal method. AUCt values were calculated from the dosing time to the last measurable concentration. AUC∞ values were calculated as the sum of the corresponding AUC and the ratio of the last detectable concentration divided by k. Plasma clearance (CL) was calculated from Dose/AUC∞. Mean resident time extrapolated to infinity (MRT∞) was estimated by moment analysis. VSS, was calculated from MRT∞×CL. Maximum concentration (Cmax) and time to reach Cmax (tmax) were recorded as observed. As this was a cross-over study, bioavailability was calculated dAUC∞,po/dAUC∞,iv×100% where dAUC was the dose normalized AUC value from the same animal given IV and PO dose. Compounds tested were prepared in accordance with the synthetic procedures described herein.

[2] = Projected single-dose CL and Vss values in humans (allometric scaling); conditions: human, allometric scaling of mouse, rat, dog, cynomolgus monkey IV PK
Experimental: Allometric scaling for the prediction of human Clearance and Volume of Distribution was based on interspecies simple allometric scaling of mouse, rat, dog, and cynomolgus monkey intravenous pharmacokinetic parameters (Boxenbaum, J Pharmacokinet Biopharm 10:201-27, 1982). Prediction of human CL was performed by extrapolating pre-clinical species' plasma intravenous clearance. The ‘rule of exponents’ (Mahmood & Balian, Life Sci. 59:579-85, 1996) was examined in this prediction, where it has been proposed that, when the exponent of simple allometry lies between 0.71 and 0.99, a correction factor based on Maximum Life Span (MLP) of this species can be applied and, when the exponent of simple allometry is greater than 1.0, a correction factor based on Brain Weight (BrW) can be applied, or a protein binding correction can be applied when available. In a similar manner, simple allometric scaling was employed to predict human Volume of Distribution. This method has been used successfully for varied drugs (Ward & Smith, Drug Metab Dispos 32:612-19, 2004; McGinnity et al., Curr Drug Metab 8:463-79, 2007).

[3] = Monkey single dose pharmacokinetics; assay type: in vivo; conditions: male, plasma, iv, Cynomolgus Monkey; for Vd: read-out: Vss
Experimental: Non-naïve Male Cynomolgus Monkey (2-5 years of age, body weight 2-5 kg) used in this study were obtained from Topgene Biotechnology. All animals for IV administration had free access to food and water; all animals for PO were fasted overnight prior to dosing and were fed approximately 6 hours after dosing. The IV dose solution was prepared in 10% DMA/50% PG/40% HPOCD solution (40% w/v aqueous HPOCD) at a concentration of 1.0 mg/mL. The oral dose suspension was prepared by suspending the compound in 0.5% HPMC/0.1% Tween 80 in distilled water at a concentration of 0.2 mg/mL. Concentrations of IV and PO doses were measured at the end of the study. PK parameters were calculated using the nominal dose values if the measured values were within 20% of the nominal values. Blood samples were collected by venipuncture of peripheral veins except the dosing vein at pre-dose, 5 15, 30 min, 1, 2, 4, 6, 8, 24 and 48 h post-dose. Blood samples were centrifuged and resultant plasma was frozen for bioanalysis. Plasma samples were stored at −80° C. before analysis. Plasma samples were analyzed for compound concentrations using the LC/MS/MS method. Briefly, a 50 μL aliquot of each plasma sample was mixed with 100 μL of acetonitrile that contained an internal standard. The mixture was vortexed and centrifuged. Ten (10) p L of the resulting solution was injected onto a reverse-phase C18 column and the resultant peaks detected on a LC/MS/MS equipped with a turbo ionspray ionization source. Sample concentrations below the limit of quantification (BLQ) were treated as zero for PK calculations. PK parameters were estimated from individual animals using noncompartmental analysis of the concentration-time data (Phoenix WinNonLin software, version 64; Pharsight, Mountain View, CA). The elimination rate constant (k) was calculated as the absolute value of the slope of the linear regression of logarithm (log) of the concentration versus time for the last three data points of the concentration-time profiles. Apparent elimination half-life (t½) values were calculated as 1n(2)/k. Area under the concentration-time curve (AUC) values were estimated using linear trapezoidal method. AUC values were calculated from the dosing time to the last measurable concentration. AUC∞ values were calculated as the sum of the corresponding AUC and the ratio of the last detectable concentration divided by k. Plasma clearance (CL) was calculated from Dose/AUC.. Mean resident time extrapolated to infinity (MRT∞) was estimated by moment analysis. Vss was calculated from MRT. X CL. Maximum concentration (Cmax) and time to reach Cmax (tmax) were recorded as observed. As this was a cross-over study, bioavailability was calculated dAUC∞,po/dAUC∞,iv ×100% where dAUC was the dose normalized AUC value from the same animal given IV and PO dose. Compounds tested were prepared in accordance with the synthetic procedures described herein.

SMILES	clearance [1]	Vd [1]	Projected t1/2 [2]	clearance [3]	half-life [3]	Vd [3]
O=CN1CC2(C1)C(=O)N(c1ccc(F)cc1F)CC(=O)N2Cc1ccc(Cl)cc1 [Comparator A, 5-(4-chlorobenzyl)-8-(2,4-difluorophenyl)-6,9-dioxo-2,5,8-triazaspiro[3.5]nonane-2-carbaldehyde]	1.59 mL/min/kg	5.2 L/kg	38.7 h	–	–	–
O=C1[C@H](C2COC2)N(Cc2ccc(C(F)(F)F)cc2)C(=O)CN1c1ncc(Cl)cc1F [Comparator C, (S)-1-(5-chloro-3-fluoropyridin-2-yl)-3-(oxetan-3-yl)-4-(4-(trifluoromethyl)benzyl)piperazine-2,5-dione, reference compound]	4.92 mL/min/kg	5.91 L/kg	41 h	13.8 mL/min/kg	11.6 h	12 L/kg
CC(=O)N1CC2(C1)C(=O)N(c1ccc(C#N)cc1F)CC(=O)N2Cc1ccc(C(F)(F)F)cc1 [Comparator D, 4-(2-acetyl-6,9-dioxo-5-(4-(trifluoromethyl)benzyl)-2,5,8-triazaspiro[3.5]nonan-8-yl)-3-fluorobenzonitrile]	3.55 mL/min/kg	6.7 L/kg	62 h	6.92 mL/min/kg	18.1 h	12.4 L/kg
O=CN1CC2(C1)C(=O)N([C@H]1CC[C@H](C(F)F)CC1)CC(=O)N2Cc1ccc(C(F)(F)F)cc1 [Comparator E, 8-((1r,4r)-4-(difluoromethyl)cyclohexyl)-6,9-dioxo-5-(4-(trifluoromethyl)benzyl)-2,5,8-triazaspiro[3.5]nonane-2-carbaldehyde]	1.49 mL/min/kg	4.1 L/kg	51.7 h	3.4 mL/min/kg	16 h	4.35 L/kg
C[C@H]1CC[C@H](N2CC(=O)N(Cc3ccc(F)c(F)c3)C3(CN(C=O)C3)C2=O)CC1 [Compound 1, 5-(3,4-difluorobenzyl)-8-((1r,4r)-4-methylcyclohexyl)-6,9-dioxo-2,5,8-triazaspiro[3.5]nonane-2-carbaldehyde]	7.57 mL/min/kg	4.23 L/kg	28.3 h	11.6 mL/min/kg	9.94 h	8.89 L/kg
